Test results reported in PubChem BioAssay AID330 (DTP/NCI, 2004).
Several values for one entry are separate records, joined by “and”; a condition that tells them apart may be missing. Equal values may be shown once. Inconclusive results and toxic doses are left out. How the source made its calls: active means survival T/C of 150% or more; inactive means T/C below 125% in these data.

System: P388 leukemia ip, CD2F1 mice, survival T/C
Test: NCI In Vivo Anticancer Drug Screen. Data for tumor model P388 Leukemia (intraperitoneal) in CD2F1 (CDF1) mice
Settings: endpoint: median survival time, higher = longer survival
How it was run: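 Mice carrying the transplanted tumor received test compound or vehicle. Survival was recorded in each group, and the value is the treated-group measurement divided by that of the vehicle-treated control group.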

[1] = dose: 50.0 mg/kg/injection, schedule: Q01DX005 (ip), vehicle: saline with Tween-80
[2] = dose: 100.0 mg/kg/injection, schedule: Q01DX005 (ip), vehicle: saline with Tween-80
[3] = dose: 200.0 mg/kg/injection, schedule: Q01DX005 (ip), vehicle: saline with Tween-80
[4] = dose: 100.0 mg/kg/injection, schedule: Q04DX003 (ip), vehicle: Klucel (hydroxypropylcellulose) (HPC)
[5] = dose: 200.0 mg/kg/injection, schedule: Q04DX003 (ip), vehicle: Klucel (hydroxypropylcellulose) (HPC)
[6] = dose: 100.0 mg/kg/injection, schedule: Q01DX009 (ip), vehicle: saline

Measured: T/C

COc1cc(OC)c(NC(=S)NC(C)C)cc1Cl
inactive: dose: 50.0 mg/kg/injection, schedule: Q01DX009 (ip), vehicle: Klucel (hydroxypropylcellulose) (HPC) 91 % of control | dose: 100.0 mg/kg/injection, schedule: Q01DX009 (ip), vehicle: Klucel (hydroxypropylcellulose) (HPC) 96 % of control | dose: 200.0 mg/kg/injection, schedule: Q01DX009 (ip), vehicle: Klucel (hydroxypropylcellulose) (HPC) 99 % of control

CCCSC(=O)Nc1ccc(Cc2ccc(NC(=O)SCCC)cc2)cc1
inactive: dose: 60.0 mg/kg/injection, schedule: Q01DX005 (ip), vehicle: saline with Tween-80 90 % of control | dose: 120.0 mg/kg/injection, schedule: Q01DX005 (ip), vehicle: saline with Tween-80 87 % of control | dose: 240.0 mg/kg/injection, schedule: Q01DX005 (ip), vehicle: saline with Tween-80 99 % of control

COC(=O)CC1SC(=S)N(Cc2ccc(Cl)cc2)C1=O (stereo unspecified)
inactive: dose: 60.0 mg/kg/injection, schedule: Q01DX005 (ip), vehicle: Klucel (hydroxypropylcellulose) (HPC) 94 % of control | dose: 120.0 mg/kg/injection, schedule: Q01DX005 (ip), vehicle: Klucel (hydroxypropylcellulose) (HPC) 90 % of control | dose: 240.0 mg/kg/injection, schedule: Q01DX005 (ip), vehicle: Klucel (hydroxypropylcellulose) (HPC) 90 % of control

CCOc1ccc(NC(=O)C(=O)NNC(=S)NC)cc1
inactive: dose: 12.5 mg/kg/injection, schedule: Q01DX009 (ip), vehicle: saline with Tween-80 94 % of control | dose: 25.0 mg/kg/injection, schedule: Q01DX009 (ip), vehicle: saline with Tween-80 92 % of control | dose: 50.0 mg/kg/injection, schedule: Q01DX009 (ip), vehicle: saline with Tween-80 92 % of control and 97 % of control

COc1ccc(S(=O)(=O)N/N=C/c2cc(=O)[nH]c(=O)[nH]2)cc1
inactive: dose: 25.0 mg/kg/injection, schedule: Q01DX005 (ip), vehicle: saline with Tween-80 100 % of control | [1] 101 % of control | [2] 105 % of control | [3] 118 % of control

CC(C)CNC(=O)c1ccc(OCC(O)CNC(C)(C)C)c(Cl)c1 (stereo unspecified)
inactive: [4] 107 % of control | [5] 102 % of control

O=C(Nc1ccc([N+](=O)[O-])cc1)Nc1nccs1
inactive: dose: 12.5 mg/kg/injection, schedule: Q01DX009 (ip), vehicle: distilled water + Tween-80 108 % of control and 112 % of control and 115 % of control | dose: 25.0 mg/kg/injection, schedule: Q01DX009 (ip), vehicle: distilled water + Tween-80 120 % of control | dose: 50.0 mg/kg/injection, schedule: Q01DX009 (ip), vehicle: distilled water + Tween-80 119 % of control

O=C1CCC(C(=O)O)N1 (stereo unspecified)
inactive: dose: 100.0 mg/kg/injection, schedule: Q04DX003 (ip), vehicle: saline 95 % of control | dose: 200.0 mg/kg/injection, schedule: Q04DX003 (ip), vehicle: saline 97 % of control | dose: 400.0 mg/kg/injection, schedule: Q04DX003 (ip), vehicle: saline 94 % of control

Cc1nn(C(=S)S)c(C)c1N=Nc1ccc(O)cc1
inactive: [1] 100 % of control | [2] 102 % of control | [3] 101 % of control

COc1cc2c(c(O)c1OC)-c1ccc(OC)c(=O)cc1[C@@H](NC(C)=O)CC2
inactive: dose: 2.5 mg/kg/injection, schedule: Q01DX009 (ip), vehicle: Klucel (hydroxypropylcellulose) (HPC) 102 % of control | dose: 5.0 mg/kg/injection, schedule: Q01DX009 (ip), vehicle: Klucel (hydroxypropylcellulose) (HPC) 93 % of control | dose: 10.0 mg/kg/injection, schedule: Q01DX009 (ip), vehicle: Klucel (hydroxypropylcellulose) (HPC) 96 % of control | dose: 20.0 mg/kg/injection, schedule: Q01DX009 (ip), vehicle: Klucel (hydroxypropylcellulose) (HPC) 93 % of control | dose: 28.0 mg/kg/injection, schedule: Q01DX009 (ip), vehicle: Klucel (hydroxypropylcellulose) (HPC) 86 % of control | dose: 40.0 mg/kg/injection, schedule: Q01DX009 (ip), vehicle: Klucel (hydroxypropylcellulose) (HPC) 102 % of control | dose: 56.0 mg/kg/injection, schedule: Q01DX009 (ip), vehicle: Klucel (hydroxypropylcellulose) (HPC) 96 % of control

CC(=O)N1C=CC(C2C=CN(C(C)=O)C=C2)C=C1
inactive: dose: 10.0 mg/kg/injection, schedule: Q01DX009 (ip), vehicle: saline with Tween-80 109 % of control | dose: 20.0 mg/kg/injection, schedule: Q01DX009 (ip), vehicle: saline with Tween-80 96 % of control | dose: 40.0 mg/kg/injection, schedule: Q01DX009 (ip), vehicle: saline with Tween-80 100 % of control

Clc1ccccc1C(=Nc1ccccc1)C(=Nc1ccccc1)c1ccccc1Cl
inactive: dose: 100.0 mg/kg/injection, schedule: Q04DX002 (ip), vehicle: Klucel (hydroxypropylcellulose) (HPC) 99 % of control | dose: 200.0 mg/kg/injection, schedule: Q04DX002 (ip), vehicle: Klucel (hydroxypropylcellulose) (HPC) 102 % of control | dose: 400.0 mg/kg/injection, schedule: Q04DX002 (ip), vehicle: Klucel (hydroxypropylcellulose) (HPC) 96 % of control

CN(C)CCC(CCc1ccccc1)OC(=O)c1ccccc1 (stereo unspecified)
inactive: dose: 25.0 mg/kg/injection, schedule: Q01DX009 (ip), vehicle: saline 102 % of control | dose: 50.0 mg/kg/injection, schedule: Q01DX009 (ip), vehicle: saline 101 % of control | [6] 102 % of control

OCCO
inactive: [6] 86 % of control and 90 % of control | dose: 200.0 mg/kg/injection, schedule: Q01DX009 (ip), vehicle: saline 100 % of control and 86 % of control | dose: 400.0 mg/kg/injection, schedule: Q01DX009 (ip), vehicle: saline 104 % of control and 100 % of control | dose: 0.5 % in 0.5 ml injection vol, schedule: Q01DX009 (ip), vehicle: water 98 % of control | dose: 1.0 % in 0.5 ml injection vol, schedule: Q01DX009 (ip), vehicle: water 99 % of control and 107 % of control | dose: 2.0 % in 0.5 ml injection vol, schedule: Q01DX009 (ip), vehicle: water 100 % of control and 102 % of control | dose: 2.5 % in 0.5 ml injection vol, schedule: Q01DX009 (ip), vehicle: water 106 % of control | dose: 4.0 % in 0.5 ml injection vol, schedule: Q01DX009 (ip), vehicle: water 94 % of control | dose: 5.0 % in 0.5 ml injection vol, schedule: Q01DX009 (ip), vehicle: water 105 % of control | dose: 10.0 % in 0.5 ml injection vol, schedule: Q01DX009 (ip), vehicle: water 103 % of control | dose: 20.0 % in 0.5 ml injection vol, schedule: Q01DX009 (ip), vehicle: water 108 % of control | dose: 40.0 % in 0.5 ml injection vol, schedule: Q01DX009 (ip), vehicle: water 100 % of control | dose: 50.0 % in 0.5 ml injection vol, schedule: Q01DX009 (ip), vehicle: water 107 % of control | dose: 80.0 % in 0.5 ml injection vol, schedule: Q01DX009 (ip), vehicle: water 100 % of control

COc1ccccc1NC(=S)Nc1ccccc1OC
inactive: dose: 100.0 mg/kg/injection, schedule: Q01DX009 (ip), vehicle: saline with Tween-80 100 % of control | dose: 100.0 mg/kg/injection, schedule: Q04DX003 (ip), vehicle: saline sonified 100 % of control | dose: 200.0 mg/kg/injection, schedule: Q01DX009 (ip), vehicle: saline with Tween-80 87 % of control | dose: 200.0 mg/kg/injection, schedule: Q04DX003 (ip), vehicle: saline sonified 100 % of control | dose: 400.0 mg/kg/injection, schedule: Q01DX009 (ip), vehicle: saline with Tween-80 91 % of control | dose: 400.0 mg/kg/injection, schedule: Q04DX003 (ip), vehicle: saline sonified 100 % of control

CCn1c2ccccc2c2ccc(N=Nc3ccccc3)cc21
inactive: [4] 100 % of control | [5] 100 % of control | dose: 400.0 mg/kg/injection, schedule: Q04DX003 (ip), vehicle: Klucel (hydroxypropylcellulose) (HPC) 105 % of control
